For this assay, the target named is T1, human Bradykinin B1 receptor (Homo sapiens, UniProt P46663).
T1 construct: host or cells: CHO-K1
T1 sequence (P46663 1-353): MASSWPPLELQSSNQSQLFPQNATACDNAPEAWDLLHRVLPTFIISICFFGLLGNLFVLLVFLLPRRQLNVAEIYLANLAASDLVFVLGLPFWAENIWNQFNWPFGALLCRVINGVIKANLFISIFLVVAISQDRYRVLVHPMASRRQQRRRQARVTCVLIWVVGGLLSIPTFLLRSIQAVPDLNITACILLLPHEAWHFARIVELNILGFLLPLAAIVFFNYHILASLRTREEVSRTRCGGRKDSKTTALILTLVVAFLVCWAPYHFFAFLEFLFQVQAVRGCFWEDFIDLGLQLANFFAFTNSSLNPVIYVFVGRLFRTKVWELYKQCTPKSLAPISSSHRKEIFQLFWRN
In words: Calcium flux Assay (FLIPR) with recombinant CHO-K1 cells expressing human Bradykinin B1 receptor, in presence (hB1 IC50) or absence (hB1 free IC50) of 0.1% BSA. Format: cell-based. A general note: Calcium assays in cells follow changes in intracellular calcium, usually with a dye or a luminescent sensor.

[1] abbreviates: in absence of 0.1% BSA, read-out: hB1 free IC50.
Setting [2] is: in presence of 0.1% BSA, read-out: hB1 IC50.

Read-outs that look alike come from different tables or passages of the source.

This note sets out measurements from patent US20210317092A1 (BAYER PHARMA AKTIENGESELLSCHAFT, priority 2016, published 2021).

The IC50 is the concentration at which inhibition is half-maximal.

Turning to `CC(C)c1cnn(-c2ccc(NC(=O)C3(c4ccc(F)c(F)c4)CC3)cc2-c2nnn[nH]2)c1` [Example 397, 1-(3,4-difluorophenyl)-N-[4-(4-isopropyl-1H-pyrazol-1-yl)-3-(1H-tetrazol-5-yl)phenyl]cyclopro-panecarboxa-mide], the 50% inhibitory concentration (IC50) under setting [1] turned out to be 38.5 nM.
Same read-out and setting: the figure for `O=C(Nc1cc(Cl)c(-c2ccc(C(F)(F)F)nc2)c(-c2nnn[nH]2)c1)C1(c2ccc(C(F)(F)F)cc2F)CC1` [Example 304, N-{3-chloro-5-(1H-tetrazol-5-yl)-4-[6-(trifluoromethyl)pyridin-3-yl]phenyl}-1-[2-fluoro-4-(trifluoromethyl)phenyl]cyclopro-panecarboxamide] is 18.5 nM.
Consider `CCOc1cncc(-c2ccc(NC(=O)C3(c4ccc(F)cc4F)CC3)cc2-c2nnn[nH]2)c1` [Example 157, 1-(2,4-difluorophenyl)-N-[4-(5-ethoxypyridin-3-yl)-3-(1H-tetrazol-5-yl)phenyl] cyclopropane-carboxamide], for which the IC50 under setting [2] amounted to 140 nM.
Take `O=C(Nc1ccc(-c2ccc(C(F)(F)F)nc2)c(-c2nnn[nH]2)c1)C1(c2cc(F)c(F)cc2F)CC1` [Example 143, N-{3-(1H-tetrazol-5-yl)-4-[6-(trifluoromethyl)pyridin-3-yl]phenyl}-1-(2,4,5-trifluorophenyl) cyclopropane-carboxamide]: the IC50 under setting [1] turned out to be 144 nM.
`CCOc1ccc(-c2ccc(NC(=O)C(C)(C)c3cccc(Cl)c3)cc2-c2nnn[nH]2)cn1` [Example 67, 2-(3-chlorophenyl)-N-[4-(6-ethoxypyridin-3-yl)-3-(1H-tetrazol-5-yl)phenyl]-2-methyl-propanamide]: the IC50 under setting [2] came to 394 nM.
Still for that read-out and setting: the same measure for `CCOc1ncc(-c2ccc(NC(=O)C3(c4cccc(Cl)c4)CC3)cc2-c2nnn[nH]2)cc1C(F)(F)F` [Example 158, 1-(3-chlorophenyl)-N-{4-[6-ethoxy-5-(trifluoromethyl)pyridin-3-yl]-3-(1H-tetrazol-5-yl)phenyl} cyclopropane-carboxamide]: 764 nM.
Consider `CCOc1ccc(-c2ccc(NC(=O)C3(c4ccc(Cl)cc4F)CC3)cc2-c2nnn[nH]2)cn1` [Example 75, 1-(4-chloro-2-fluorophenyl)-N-[4-(6-ethoxypyridin-3-yl)-3-(1H-tetrazol-5-yl)phenyl] cyclopropane-carboxamide], for which the half-maximal inhibitory concentration (IC50) amounted to 14.1 nM under setting [1] and 22.7 nM under setting [2].
Regarding `Cc1ccc(C2(C(=O)Nc3ccc(-n4ccc(C(F)(F)F)n4)c(-c4nnn[nH]4)c3)CC2)c(F)c1` [Example 366, 1-(2-Fluoro-4-methylphenyl)-N-{3-(1H-tetrazol-5-yl)-4-[3-(trifluoromethyl)-1H-pyrazol-1-yl]phenyl}cyclopro-panecarboxa-mide], the IC50 under setting [1] amounted to 94.2 nM.
As to `CCC(F)(F)c1ccc(-c2ccc(NC(=O)C3(c4ccc(C(F)(F)F)cc4F)CC3)cc2-c2nnn[nH]2)cn1` [Example 286, N-{4-[6-(1,1-difluoropropyl)py-ridin-3-yl]-3-(1H-tetrazol-5-yl)phenyl}-1-[2-fluoro-4-(trifluoromethyl)phenyl]cyclopro-panecarboxamide], the IC50 under setting [1] is 4.34 nM.
The same measure, in the same setting: the figure for `Cc1nc(C(F)(F)F)nn1-c1ccc(NC(=O)C2(c3ccc(F)c(F)c3)CC2)cc1-c1nnn[nH]1` [Example 360, 1-(3,4-difluorophenyl)-N-{4-[5-methyl-3-(trifluoromethyl)-1H-1,2,4-triazol-1-yl]-3-(1H-tetrazol-5-yl)phenyl}cyclopro-panecarboxa-mide] is 1700 nM.
Regarding `O=C(Nc1ccc(-c2cnc3ccoc3c2)c(-c2nnn[nH]2)c1)C1(c2cccc(Cl)c2)CC1` [Example 321, 1-(3-chlorophenyl)-N-[4-(furo[3,2-b]pyridin-6-yl)-3-(1H-tetrazol-5-yl)phenyl]cyclopro-panecarboxa-mide], the 50% inhibitory concentration (IC50) under setting [2] worked out at 152 nM.
In the case of `O=C(Nc1ccc(-c2cnc(C(F)(F)F)nc2)c(-c2nnn[nH]2)c1)C1(c2ccc(Cl)cc2F)CC1` [Example 252, 1-(4-chloro-2-fluorophenyl)-N-{3-{1H-tetrazol-5-yl)-4-[2-(trifluoromethyl)pyrimidin-5-yl]phenyl} cyclopropane-carboxamide], the half-inhibitory concentration (IC50) under setting [1] amounted to 92.8 nM.
For `CCOc1ccc(-c2ccc(NC(=O)C3(c4ccc(Cl)cn4)CC3)cc2-c2nnn[nH]2)cn1` [Example 85, 1-(5-chloropyridin-2-yl)-N-[4-(6-ethoxypyridin-3-yl)-3-(1H-tetrazol-5-yl)phenyl] cyclopropane-carboxamide], under setting [2], the half-maximal inhibitory concentration (IC50) is 63.1 nM.
For the molecule `CCOc1ccc(-c2ccc(NC(=O)C3(c4cccc(F)c4Cl)CC3)cc2-c2nnn[nH]2)cn1` [Example 106, 1-(2-chloro-3-fluorophenyl)-N-[4-(6-ethoxypyridin-3-yl)-3-(1H-tetrazol-5-yl)phenyl] cyclopropane-carboxamide], under setting [2], the half-inhibitory concentration (IC50) worked out at 56 nM.
Regarding `O=C(Nc1ccc(-c2ccc(C(F)F)nc2)c(-c2nnn[nH]2)c1)C1(c2ccc(Cl)cc2)CC1` [Example 269, 1-(4-chlorophenyl)-N-{4-[6-(difluoromethyl)pyridin-3-yl]-3-(1H-tetrazol-5-yl)phenyl}cyclopro-panecarboxa-mide], the 50% inhibitory concentration (IC50) under setting [1] came out at 13.2 nM.
For the molecule `O=C(Nc1ccc(-c2cnc(C(F)(F)F)nc2)c(-c2nnn[nH]2)c1)C1(c2ccc(OC(F)(F)F)cc2)CC1` [Example 198, N-{3-(1H-tetrazol-5-yl)-4-[2-(trifluoromethyl)pyrimidin-5-yl]phenyl}-1-[4-(trifluoromethoxy)phenyl] cyclopropane-carboxamide], under setting [1], the 50% inhibitory concentration (IC50) was found to be 943 nM.
Take `CCC1CCN(c2ccc(NC(=O)C3(c4ccc(C)cc4F)CC3)cc2-c2nnn[nH]2)C1=O` (stereo not drawn) [Example 407, N-[4-(3-ethyl-2-oxopyrrolidin-1-yl)-3-(1H-tetrazol-5-yl)phenyl]-1-(2-fluoro-4-methylphenyl)cy-clopropanecar-boxamide]: under setting [1], the IC50 is 474 nM.
Consider `CCOc1ccc(-c2ccc(NC(=O)C3(c4ccc(OC(F)(F)F)cc4)CC3)cc2-c2nnn[nH]2)cn1` [Example 74, N-[4-(6-ethoxypyridin-3-yl)-3-(1H-tetrazol-5-yl)phenyl]-1-[4-(trifluoromethoxy)phenyl] cyclopropane-carboxamide], for which the IC50 under setting [1] amounted to 7.76 nM and the 50% inhibitory concentration (IC50) under setting [2] amounted to 18.7 nM.
Consider `COc1cc(C2(C(=O)Nc3ccc(-c4ccnc(C(F)(F)F)c4)c(-c4nnn[nH]4)c3)CC2)ccc1F` [Example 180, 1-(4-fluoro-3-methoxyphenyl)-N-{3-(1H-tetrazol-5-yl)-4-[2-(trifluoromethyl)pyridin-4-yl]phenyl} cyclopropane-carboxamide], for which the half-inhibitory concentration (IC50) under setting [1] was 768 nM.
Still for that read-out and setting: the same measure for `O=C(Nc1ccc(-c2ccc(C(F)F)nc2)c(-c2nnn[nH]2)c1)C1(c2ccc(OC(F)(F)F)cc2)CC1` [Example 271, N-{4-[6-(difluoromethyl)pyridin-3-yl]-3-(1H-tetrazol-5-yl)phenyl}-1-[4-(trifluoromethoxy)phenyl]cyclo-propanecarboxa-mide]: 6.09 nM.
Turning to `COc1ccc(-c2c(C)cc(NC(=O)C3(c4cccc(Cl)c4)CC3)cc2-c2nnn[nH]2)cc1OC` [Example 250, 1-(3-Chlorophenyl)-N-[3′,4′-dimethoxy-2-methyl-6-(1H-tetrazol-5-yl)biphenyl-4-yl]cyclopropane carboxamide], the IC50 under setting [2] came to 240 nM.
In the case of `O=C(Nc1ccc(-n2cc(Cl)cn2)c(-c2nnn[nH]2)c1)C1(c2cccc(Cl)c2)CC1` [Example 391, 1-(3-chlorophenyl)-N-[4-(4-chloro-1H-pyrazol-1-yl)-3-(1H-tetrazol-5-yl)phenyl]cyclopro-panecarboxa-mide], the IC50 under setting [1] came to 1890 nM.
The same measure, in the same setting: the same measure for `CC(C)(C)c1ccn(-c2ccc(NC(=O)C3(c4ccc(OC(F)(F)F)cc4F)CC3)cc2-c2nnn[nH]2)n1` [Example 381, N-[4-(3-tert-Butyl-1H-pyrazol-1-yl)-3-(1H-tetrazol-5-yl)phenyl]-1-[2-fluoro-4-(trifluoromethoxy)phenyl]cyclo-propanecarboxa-mide]: 36.7 nM.
In the case of `COc1cncc(-c2ccc(NC(=O)C3(c4cccc(C)c4)CC3)cc2-c2nnn[nH]2)c1` [Example 151, N-[4(5-methoxypyridin-3-yl)-3-(1H-tetrazol-5-yl)phenyl]-1-(3-methylphenyl) cyclopropane-carboxamide], the IC50 under setting [2] was determined as 127 nM.
For the molecule “1-(3,4- difluorophenyl)- N-{3-(1H- tetrazol-5-yl)-4- [3-(2,2,2- trifluoroethyl)- 1H-pyrazol-1- yl]phenyl}cyclopro- panecarboxa- mide [Example 387]”, the concentration for half-maximal inhibition (IC50) under setting [1] stood at 434 nM.
Same read-out and setting: the figure for `Cc1ccc(C2(C(=O)Nc3ccc(-n4cnc(C(F)(F)F)c4)c(-c4nnn[nH]4)c3)CC2)c(F)c1` [Example 367, 1-(2-Fluoro-4-methylphenyl)-N-{3-(1H-tetrazol-5-yl)-4-[4-(trifluoromethyl)-1H-imidazol-1-yl]phenyl}cyclopro-panecarboxa-mide] is 61.2 nM.
As for `CCC1CCN(c2ccc(NC(=O)C3(c4ccc(OC(F)(F)F)cc4F)CC3)cc2-c2nnn[nH]2)C1=O` (stereo not drawn) [Example 409, N-[4-(3-ethyl-2-oxopyrrolidin-1-yl)-3-(1H-tetrazol-5-yl)phenyl]-1-[2-fluoro-4-(trifluoromethoxy)phenyl]cyclo-propanecarboxa-mide], under setting [1], the half-maximal inhibitory concentration (IC50) was 54.7 nM.
As for `CCc1ccc(C2(C(=O)Nc3ccc(-c4ccc(OC)c(OC)c4)c(-c4nnn[nH]4)c3)CC2)cc1` [Example 57, N-[3′,4′-dimethoxy-2-(1H-tetrazol-5-yl)biphenyl-4-yl]-1-(4-ethylphenyl) cyclopropane-carboxamide], under setting [2], the half-inhibitory concentration (IC50) came to 36.6 nM.
